Data as given in US20240269305A1, “STING AGONIST SUITABLE AS PAYLOAD OF ANTIBODY DRUG CONJUGATE” (HITGEN INC., priority 2021, published 2024).
pEC50: −log10 of the molar value.

Legend:
STING signaling pathway [1] = experiment: IFN-β production in THP1 cells (ELISA); format: cell-based; conditions: Homo sapiens, read-out: IFN-β EC50
Protocol: In this experiment, the function of sting agonists was evaluated by detecting the changes of IFN-β and CXCL10 (IP10) cytokines which were produced by the stimulation of the compounds to human peripheral blood mononuclear cell line THP1 cell (Shanghai Cell Bank). On the first day of the experiment, ELISA plates were coated according to the instructions of IFN-β (R&D, #DY814-05) and IP10 (BD, #550926) ELISA detection kits. The compound was dissolved in DMSO as a stock solution, which was diluted with culture medium to a 2× working concentration, and then added to a 96-well plate at 100 μL per well; THP1 cells in the logarithmic growth phase were counted and diluted to a concentration of 2*10^6/mL, which was then added at 100 μL per well to the aforementioned 96-well plate containing the compounds. After mixed, the above cells in the 96-well plate were incubated at 37° C. and 5% CO2 for 18 h. On the second day, the above cell culture supernatant was aspirated at 100 μL per well, and then their OD450 values were determined using the IFN-β and IP10 ELISA detection kits respectively. The obtained data was converted to the concentration of IFN-β and IP10 according to the standard curve, and the EC50 values were calculated using GraphPad 5.0 to fit the dose-effect curve.

[2] = Cytotoxicity in THP1-Blue ISG cells (Celltiter Glo); format: cell-based, human; conditions: Celltiter Glo luminescence; for CC50 at 18 h: human
Protocol: (§1) In this experiment, THP1-Blue™ ISG (interferon-stimulated genes) cell line (InvivoGen, catalog number: thp-isg) was used to evaluate the activating of interferon signaling pathway after the treatment by the compounds. THP1-Blue™ ISG cells were cultured using RPMI1640 medium (containing 10% heat-inactivated fetal bovine serum, 100 μg/ml Zeocin™, InvivoGen, catalog number: ant-zn-1). On the first day of the experiment, the compound was dissolved in DMSO as a stock solution, which was then diluted with culture medium to 2× working concentration and then 100 μL per well of the above dilution was added to a 96-well plate; THP1 cells in the logarithmic growth phase were counted and diluted to a concentration of 1*10^6 cells/mL, which was then added at 100 μL per well (1*10^5 cells/well) to the aforementioned 96-well plate containing the compounds. After mixed, the above cells in the 96-well plate were incubated at 37° C. with 5% CO2 for 18 h. On the second day, the above cell culture supernatant was aspirated at 20 μL per well, which was added to a new 96-well plate. And then 180 μL per well of QUANTI-Blue™ solution (InvivoGen, catalog number: rep-qbs1) was added. The above cells in the 96-well plate were incubated at 37° C. for 1 h. OD (620-655 nm) value was read on a Microplate Reader, and the EC50 value was calculated by using GraphPad to fit the dose-effect curve. 50 μL of Celltiter Glo solution (Promega, Cat. No. G756B) was added to the remaining cell culture plates.

STING signaling pathway [3] = experiment: THP1-Blue ISG reporter assay (QUANTI-Blue); format: cell-based, human
Protocol: as §1

[4] = Cytotoxicity in PBMC (CellTiter-Glo); format: cell-based; conditions: PBMC cells, CTG
Protocol: (§2) The following experiments were performed to determine the activation effect of the compound on the STING signaling pathway in PBMC cells, which mainly using ELISA to detect the secretion of IL-6, TNF-, IFN-, and IFN- in the cell culture supernatant. At the same time, CTG (CellTiter-Glo) was used to detect the survival rate of the cells, and to calculate the half cytotoxic dose of cells CC50.
(§3) The frozen PBMC cells were placed in a 37° C. water bath. After the ice was completely melted, the cells were transferred to 3 ml of RPMI 1640 complete culture medium (containing 10% FBS), and then centrifuged at 1500 rpm for 3 minutes. After removing the supernatant, the cells were re-suspended for counting. 200 μL of 50,000 PBMC cells were added in a 96-well plate, and the compounds to be tested were diluted with different gradient concentrations. After 6 h, 150 μL of the cell supernatant was aspirated, and the concentrations of IL-6, TNF-, IFN-, and IFN- were measured using ELISA kits, and the curves of compound concentration and cytokine release were drawn to calculate the values of EC50. 50 μL of CTG solution was added to the remaining cell culture plate.

STING signaling pathway [5] = experiment: Cytokine secretion in PBMC (ELISA); format: cell-based; conditions: 6 h
Protocol: as §2, §3

[6] = THP-1, THP1 cells, 18 h incubation, ELISA of culture supernatant
[7] = Homo sapiens, THP1-Blue ISG cells, 18 h incubation, QUANTI-Blue OD 620-655 nm, read-out: EC50
[8] = ELISA of supernatant, read-out: IFN-β EC50
[9] = ELISA of supernatant, read-out: IL-6 EC50
[10] = ELISA of supernatant, read-out: TNF-α EC50
[11] = THP1-Blue ISG cells, 18 h incubation, QUANTI-Blue OD 620-655 nm, read-out: EC50

Row | Structure (SMILES) | pEC50 (STING signaling pathway [1]; [6]) | CC50 at 18 h [2] [nM] | pEC50 (STING signaling pathway [3]; [7]) | CC50 at 6 h [4] [nM] | pEC50 (STING signaling pathway [5]; [8]) | pEC50 (STING signaling pathway [5]; [9]) | pEC50 (STING signaling pathway [5]; [10]) | further results
1 | CCc1nc(C)sc1C(=O)Nc1nc2cc(C(N)=O)cc(OCCCN3CCN(C(=O)CCN)CC3)c2n1C/C=C/Cn1c(NC(=O)c2cc(C)nn2CC)nc2cc(C(N)=O)cc(SC)c21 [Example 1] | 6.00 to 7.00 | > 50000 | > 7.00 | > 25000 | 6.00 to 7.00 | 6.00 to 7.00 | 6.00 to 7.00 | 
2 | CCc1nc(C)sc1C(=O)Nc1nc2cc(C(N)=O)cc(OCCCN3CCN(C(=O)CCCNC)CC3)c2n1C/C=C/Cn1c(NC(=O)c2cc(C)nn2CC)nc2cc(C(N)=O)cc(SC)c21 [Example 2] | 6.00 to 7.00 | > 50000 | > 7.00 | > 40000 | 6.00 to 7.00 | 6.00 to 7.00 | 6.00 to 7.00 | 
3 | CCc1nc(C)sc1C(=O)Nc1nc2cc(C(N)=O)cc(OCCCN3CCN(C(=O)C(C)(C)CCN)CC3)c2n1C/C=C/Cn1c(NC(=O)c2cc(C)nn2CC)nc2cc(C(N)=O)cc(SC)c21 [Example 3] | 6.00 to 7.00 | > 50000 | > 7.00 | > 40000 | 6.00 to 7.00 | 6.00 to 7.00 | 6.00 to 7.00 | 
4 | CCc1nc(C)sc1C(=O)Nc1nc2cc(C(N)=O)cc(OCCCN3CCN(C(=O)OCCCN4CCNCC4)CC3)c2n1C/C=C/Cn1c(NC(=O)c2cc(C)nn2CC)nc2cc(C(N)=O)cc(SC)c21 [Example 6] | 6.00 to 7.00 |  |  |  |  |  |  | 
5 | CCc1nc(C)sc1C(=O)Nc1nc2cc(C(N)=O)cc(OCCCN3CCN(C(=O)OCCCC4CCNCC4)CC3)c2n1C/C=C/Cn1c(NC(=O)c2cc(C)nn2CC)nc2cc(C(N)=O)cc(SC)c21 [Example 8] |  |  |  |  |  |  |  | pEC50 (STING signaling pathway [1]; THP-1, 18 h): 6.00 to 7.00
6 | CCc1nc(C)sc1C(=O)Nc1nc2cc(C(N)=O)cc(OCCCN3CCN(C(=O)OCCCN)CC3)c2n1C/C=C/Cn1c(NC(=O)c2cc(C)nn2CC)nc2cc(C(N)=O)cc(SC)c21 [Example 10] |  | > 50000 |  | > 40000 |  |  |  | pEC50 (STING signaling pathway [1]; THP-1, 18 h): 6.00 to 7.00; pEC50 (STING signaling pathway [3]; Homo sapiens, THP1-Blue ISG, 18 h): > 7.00; pEC50 (STING signaling pathway [5]; read-out: IFN-β EC50): 6.00 to 7.00; pEC50 (STING signaling pathway [5]; read-out: IL-6 EC50): 6.00 to 7.00; pEC50 (STING signaling pathway [5]; read-out: TNF-α EC50): 6.00 to 7.00
7 | CCc1nc(C)sc1C(=O)Nc1nc2cc(C(N)=O)cc(OCCCN3CCN(CCNC)CC3)c2n1C/C=C/Cn1c(NC(=O)c2cc(C)nn2CC)nc2cc(C(N)=O)cc(SC)c21 [Example 11] | < 6.00 |  |  |  |  |  |  | 
8 | CCc1nc(C)sc1C(=O)Nc1nc2cc(C(N)=O)cc(OCCCN3CCN(CCN)CC3)c2n1C/C=C/Cn1c(NC(=O)c2cc(C)nn2CC)nc2cc(C(N)=O)cc(SC)c21 [Example 12] | < 6.00 |  |  |  |  |  |  | 
9 | CCc1nc(C)sc1C(=O)Nc1nc2cc(C(N)=O)cc(SC)c2n1C/C=C/Cn1c(NC(=O)c2cc(C)nn2CC)nc2cc(C(N)=O)cc(OCCCN3CCN(C(=O)OCCCC4CCNCC4)CC3)c21 [Example 13] | 6.00 to 7.00 | > 50000 | > 7.00 | > 50000 | 6.00 to 7.00 | > 7.00 | > 7.00 | 
10 | CCc1nc(C)sc1C(=O)Nc1nc2cc(C(N)=O)cc(SC)c2n1C/C=C/Cn1c(NC(=O)c2c(F)c(C)nn2CC)nc2cc(C(N)=O)cc(OCCCN3CCN(C(=O)OCCCC4CCNCC4)CC3)c21 [Example 14] | 6.00 to 7.00 | > 50000 | > 7.00 | > 50000 | 6.00 to 7.00 | 6.00 to 7.00 | > 7.00 | 
11 | CCc1nc(C)sc1C(=O)Nc1nc2cc(C(N)=O)cc(OCCCN3CCN(C(=O)OCCCC4CCNCC4)CC3)c2n1C/C=C/Cn1c(NC(=O)c2c(F)c(C)nn2CC)nc2cc(C(N)=O)cc(SC)c21 [Example 15] | 6.00 to 7.00 |  |  |  |  |  |  | 
12 | CCc1nc(C)sc1C(=O)Nc1nc2cc(C(N)=O)cc(OCCCN3CCOCC3)c2n1C/C=C/Cn1c(NC(=O)c2c(F)c(C)nn2CC)nc2cc(C(N)=O)cc(SCCCN)c21 [Example 17] | < 6.00 |  |  |  |  |  |  | 
13 | CCc1nc(C)sc1C(=O)Nc1nc2cc(C(N)=O)cc(OCCCN3CCOCC3)c2n1C/C=C/Cn1c(NC(=O)c2c(F)c(C)nn2CC)nc2cc(C(N)=O)cc(SCCCNC(=O)OCCCC3CCNCC3)c21 [Example 18] | < 6.00 |  |  |  |  |  |  | 
14 | CCc1nc(C)sc1C(=O)Nc1nc2cc(C(N)=O)cc(OCCCN3CCOCC3)c2n1C/C=C/Cn1c(NC(=O)c2c(F)c(C)nn2CC)nc2cc(C(N)=O)cc(OCCCN)c21 [Example 19] | < 6.00 |  |  |  |  |  |  | 
15 | CCc1nc(C)sc1C(=O)Nc1nc2cc(C(N)=O)cc(OC)c2n1C/C=C/Cn1c(NC(=O)c2cc(C)nn2CC)nc2cc(C(N)=O)cc(OCCCN3CCNCC3)c21 [Example 20] |  | > 50000 | 6.00 to 7.00 | > 50000 | 6.00 to 7.00 | 6.00 to 7.00 | 6.00 to 7.00 | 
16 | CCc1nc(C)sc1C(=O)Nc1nc2cc(C(N)=O)cc(OCCCN3CCNCC3)c2n1C/C=C/Cn1c(NC(=O)c2cc(C)nn2CC)nc2cc(C(N)=O)cc(OC)c21 [Example 21] |  |  | > 7.00 |  | 6.00 to 7.00 | 6.00 to 7.00 | > 7.00 | 
17 | CCc1nc(C)sc1C(=O)Nc1nc2cc(C(N)=O)cc(OCCCN3CCN(C(=O)OCCCNC(=O)OCc4ccc(NC(=O)[C@H](CCCNC(N)=O)NC(=O)[C@@H](NC(=O)CCCCCN5C(=O)C=CC5=O)C(C)C)cc4)CC3)c2n1C/C=C/Cn1c(NC(=O)c2cc(C)nn2CC)nc2cc(C(N)=O)cc(SC)c21 [Example 40] |  |  |  |  |  | > 7.00 | > 7.00 | CC50 ([2]; 18 h): > 50000 nM; pEC50 (STING signaling pathway [3]; [11]): > 7.00
18 | CCc1nc(C)sc1C(=O)Nc1nc2cc(C(N)=O)cc(OCCCN3CCN(C(=O)C(C)(C)CCNC(=O)OCCCNC(=O)OCc4ccc(NC(=O)[C@H](CCCNC(N)=O)NC(=O)[C@@H](NC(=O)CCCCCN5C(=O)C=CC5=O)C(C)C)cc4)CC3)c2n1C/C=C/Cn1c(NC(=O)c2cc(C)nn2CC)nc2cc(C(N)=O)cc(SC)c21 [Example 41] |  | > 50000 |  |  |  | 6.00 to 7.00 | 6.00 to 7.00 | pEC50 (STING signaling pathway [3]; [11]): > 7.00
